Reference: ChEMBL document CHEMBL1201862, “PubChem BioAssay data set” (2004)
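In this assay, cells in 96-well plates receive the compound at five concentrations for 48 hours. Endpoints are linearly interpolated between the surrounding concentrations. The concentration for 50% growth inhibition is given as GI50.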 Activity calls are given as the source filed them. No stated cut-off is given here; in the data, active = GI50 up to about 1.1 µM and inactive = higher.

Assays:
Experiment in all cases: DTP human tumour cell line panel, 48 h
[1] = system: CAKI-1
[2] = system: DU-145
[3] = system: EKVX
[4] = system: HCT-116
[5] = system: HOP-62
[6] = system: IGROV-1
[7] = system: LOX IMVI
[8] = system: M14
[9] = system: MDA-MB-435
[10] = system: NCI-H460
[11] = system: OVCAR-5
[12] = system: OVCAR-8
[13] = system: PC-3
[14] = system: SF-268
[15] = system: SK-MEL-5
[16] = system: SNB-19
[17] = system: SW-620
[18] = system: UACC-257
[19] = system: OVCAR-4

Measured: GI50

CC(CO)(Nc1ccc([N+](=O)[O-])cc1[N+](=O)[O-])C(=O)O (configuration not stated)
inactive: [1] 33.8 µM | [2] 22.8 µM | [3] 29.2 µM | [4] 63.2 µM | [5] 49.1 µM | [6] 20 µM | [7] 22.5 µM | [8] 80.2 µM | [9] 21.6 µM | [10] 15.5 µM | [11] 32.6 µM | [12] 34.8 µM | [13] 64.6 µM | [14] 19.3 µM | [15] 20.5 µM | [16] 43 µM | [17] 16.7 µM | [18] 24.9 µM

COC(=O)C1CC(C(=O)OC)c2nc3cc(C)c(C)cc3nc21 (configuration not stated)
inactive: [1] > 100 µM | [3] > 100 µM | [5] > 100 µM | [6] > 100 µM | [7] > 100 µM | [8] > 100 µM | [10] > 100 µM | [19] > 100 µM | [11] > 100 µM | [12] > 100 µM | [14] > 100 µM | [15] > 100 µM | [16] > 100 µM | [17] > 100 µM | [18] > 100 µM

CCOc1ccccc1/N=N/c1ccc2oc(=O)c(C(C)=O)cc2c1
inactive: [1] > 100 µM | [3] 45.9 µM | [4] > 100 µM | [5] > 100 µM | [6] > 100 µM | [7] > 100 µM | [8] > 100 µM | [10] > 10 µM | [19] > 100 µM | [11] > 100 µM | [12] > 100 µM | [14] > 100 µM | [15] > 100 µM | [16] 55.5 µM | [17] > 100 µM | [18] > 100 µM

O=C1CCC2(c3ccccc3)OCC([C@@H](O)c3ccccc3)N12 (some centres not stated)
inactive: [1] > 100 µM | [3] > 100 µM | [4] > 100 µM | [5] > 100 µM | [6] > 100 µM | [7] > 100 µM | [10] > 100 µM | [19] > 100 µM | [11] > 100 µM | [12] > 100 µM | [14] > 100 µM | [15] > 100 µM | [16] > 100 µM | [17] > 100 µM | [18] > 100 µM

C[N+](C)(C)CC1CCCC/C1=N\O (configuration not stated)
inactive: [3] > 100 µM | [4] > 100 µM | [5] > 100 µM | [6] > 100 µM | [7] > 100 µM | [8] > 100 µM | [10] > 100 µM | [19] > 100 µM | [11] > 100 µM | [12] > 100 µM | [14] > 100 µM | [16] > 100 µM | [17] > 100 µM | [18] > 100 µM

CC(C)C1CNC2N1C(=O)C2(C)OCc1ccccc1 (configuration not stated)
inactive: [3] > 100 µM | [4] > 100 µM | [5] > 100 µM | [6] > 100 µM | [7] > 100 µM | [8] > 100 µM | [10] > 100 µM | [19] > 100 µM | [12] > 100 µM | [14] > 100 µM | [15] > 100 µM | [16] > 100 µM | [17] > 100 µM | [18] > 100 µM

O=C(O)C1OC(Oc2cc(O)c3c(=O)cc(-c4ccc(O)cc4)oc3c2)C(O)C(O)C1O (configuration not stated)
inactive: [1] > 100 µM | [3] > 100 µM | [4] > 100 µM | [5] > 100 µM | [7] > 100 µM | [8] > 100 µM | [10] > 100 µM | [19] > 100 µM | [11] > 100 µM | [12] > 100 µM | [14] > 100 µM | [15] > 100 µM | [16] > 100 µM | [17] > 100 µM | [18] > 100 µM

O=C(/C=C/c1c(O)ccc2ccccc12)c1cccc(O)c1
inactive: [1] > 100 µM | [3] > 100 µM | [4] > 100 µM | [5] > 100 µM | [6] > 100 µM | [7] 41.8 µM | [8] > 100 µM | [10] > 100 µM | [19] > 70 µM | [11] > 100 µM | [12] > 100 µM | [14] > 100 µM | [15] 50.4 µM | [16] > 100 µM | [17] > 100 µM | [18] 76.9 µM

COc1cc(NCC(C#N)C#N)ccc1/N=N/c1ccc(Cl)cc1
inactive: [3] 21.1 µM | [4] 23.7 µM | [5] 19.9 µM | [6] 30.5 µM | [7] 18.2 µM | [8] 16.4 µM | [10] 23.2 µM | [19] 37.1 µM | [11] 21.8 µM | [12] 29.7 µM | [14] 38.5 µM | [15] 23 µM | [16] 13.1 µM | [17] 20.8 µM

COC(=O)C1=CCON(c2ccccc2)C1c1ccccc1 (configuration not stated)
inactive: [1] 42.9 µM | [3] 42.1 µM | [5] > 100 µM | [6] 97.3 µM | [7] 47.1 µM | [8] 32.2 µM | [10] 48.2 µM | [19] > 10 µM | [11] 94.2 µM | [14] 75.3 µM | [16] 62.8 µM | [17] 70.5 µM

O=C1C2=C(c3ccccc31)C(c1ccccc1)NC(S)=N2 (configuration not stated)
inactive: [1] 48.8 µM | [3] > 100 µM | [4] 29 µM | [5] > 100 µM | [6] 75.3 µM | [8] 55.1 µM | [10] 91.6 µM | [19] 26.1 µM | [11] > 100 µM | [12] 35.2 µM | [14] 30.8 µM | [15] 54.8 µM | [16] 38 µM | [17] 31 µM | [18] > 100 µM

COc1cc(O)c2c(c1O)C(=O)c1cc(C)ncc1C2=O
inactive: [3] 40.5 µM | [4] 16.5 µM | [5] 28.8 µM | [6] 23.1 µM | [7] 13.9 µM | [8] 24.8 µM | [10] 13.8 µM | [19] 35.4 µM | [11] 44.9 µM | [12] 21.8 µM | [14] 19.8 µM | [15] 11.6 µM | [16] 21.6 µM | [17] 20.2 µM | [18] 15 µM

COc1ccc2nc(-c3cccs3)cc(C(O)CN3CCSCC3)c2c1 (configuration not stated)
inactive: [1] 17.3 µM | [3] 29 µM | [5] 24.2 µM | [6] 36 µM | [7] 16.5 µM | [8] 18.1 µM | [10] 16.3 µM | [19] 8.3 µM | [11] 19.2 µM | [12] 16.6 µM | [14] 27 µM | [15] 16.4 µM | [16] 29.2 µM | [17] 30.7 µM | [18] 21.2 µM

Clc1ccc2[nH]c(CCSCCc3nc4ccc(Cl)cc4[nH]3)nc2c1
inactive: [1] 4.55 µM | [3] 16.9 µM | [4] 6.21 µM | [5] 15.2 µM | [6] 10.2 µM | [7] 12.8 µM | [8] 13 µM | [10] 15.1 µM | [19] 14.2 µM | [11] 12.4 µM | [12] 14.2 µM | [15] 5.87 µM | [17] 14 µM | [18] 12.7 µM

Cc1cc(Cl)ccc1NC1=NC(=O)C(CC(=O)Nc2ccc(Cl)cc2Cl)S1 (configuration not stated)
inactive: [1] > 100 µM | [3] > 100 µM | [5] > 100 µM | [6] > 100 µM | [7] > 100 µM | [8] > 100 µM | [10] > 100 µM | [19] > 100 µM | [11] > 100 µM | [12] > 100 µM | [14] > 100 µM | [15] > 100 µM | [16] > 100 µM | [17] > 100 µM | [18] > 100 µM

C/C=C/C=C/C=C/C=C/C(=O)O
inactive: [1] > 100 µM | [3] > 100 µM | [4] > 100 µM | [5] > 100 µM | [6] > 100 µM | [7] > 100 µM | [8] > 100 µM | [10] > 100 µM | [19] > 100 µM | [11] > 100 µM | [12] > 100 µM | [14] > 100 µM | [15] > 100 µM | [16] > 100 µM | [17] > 100 µM | [18] > 100 µM

CC1CC(=O)C(CC(=O)O)[C@H]1C(C(=O)C(=O)Nc1cc(Cl)ccc1Cl)[N+](=O)[O-] (some centres not stated)
inactive: [1] > 100 µM | [3] > 100 µM | [5] > 100 µM | [6] > 100 µM | [7] > 100 µM | [10] > 100 µM | [11] > 100 µM | [12] > 100 µM | [14] > 100 µM | [15] > 100 µM | [16] > 100 µM | [17] > 100 µM

Nc1ccc(O)c2c1C(=O)c1c(N)ccc(O)c1C2=O
inactive: [1] > 100 µM | [3] > 100 µM | [4] > 100 µM | [5] > 100 µM | [6] > 100 µM | [7] > 100 µM | [8] > 100 µM | [10] > 100 µM | [19] > 100 µM | [11] > 100 µM | [12] > 100 µM | [14] > 100 µM | [15] > 100 µM | [16] > 100 µM | [17] > 100 µM | [18] > 100 µM
